# Assay results taken from patent US7618990B2, “Oxazolidone derivatives as PR modulators” (Wyeth, priority 2006, dated 2009).
# Assays:
# [1] = tested on: alkaline phosphatase activity in T47D cells; assay: Effects of progestins and antiprogestins on alkaline phosphatase activity in T47D cells (antagonist mode); type: cell-based; details: Homo sapiens, in the presence of 1 nM progesterone, 24 h, read-out: T47D Alkaline Phosphatase Activity IC50 (nM) or % inhibition
# [2] = target: T1, progesterone receptor (PR) (Homo sapiens, UniProt P06401); assay: Progesterone receptor whole cell competition binding assay using T47D cells; details: intact T47D cells, 3 nM 3H-progesterone, 3 h at 37° C.
# T1 construct: in live, intact (whole) cells using the human breast carcinoma T47D cell line; endogenous in cells; host or cells: T47D human breast carcinoma cells
# T1 sequence (P06401 1-933): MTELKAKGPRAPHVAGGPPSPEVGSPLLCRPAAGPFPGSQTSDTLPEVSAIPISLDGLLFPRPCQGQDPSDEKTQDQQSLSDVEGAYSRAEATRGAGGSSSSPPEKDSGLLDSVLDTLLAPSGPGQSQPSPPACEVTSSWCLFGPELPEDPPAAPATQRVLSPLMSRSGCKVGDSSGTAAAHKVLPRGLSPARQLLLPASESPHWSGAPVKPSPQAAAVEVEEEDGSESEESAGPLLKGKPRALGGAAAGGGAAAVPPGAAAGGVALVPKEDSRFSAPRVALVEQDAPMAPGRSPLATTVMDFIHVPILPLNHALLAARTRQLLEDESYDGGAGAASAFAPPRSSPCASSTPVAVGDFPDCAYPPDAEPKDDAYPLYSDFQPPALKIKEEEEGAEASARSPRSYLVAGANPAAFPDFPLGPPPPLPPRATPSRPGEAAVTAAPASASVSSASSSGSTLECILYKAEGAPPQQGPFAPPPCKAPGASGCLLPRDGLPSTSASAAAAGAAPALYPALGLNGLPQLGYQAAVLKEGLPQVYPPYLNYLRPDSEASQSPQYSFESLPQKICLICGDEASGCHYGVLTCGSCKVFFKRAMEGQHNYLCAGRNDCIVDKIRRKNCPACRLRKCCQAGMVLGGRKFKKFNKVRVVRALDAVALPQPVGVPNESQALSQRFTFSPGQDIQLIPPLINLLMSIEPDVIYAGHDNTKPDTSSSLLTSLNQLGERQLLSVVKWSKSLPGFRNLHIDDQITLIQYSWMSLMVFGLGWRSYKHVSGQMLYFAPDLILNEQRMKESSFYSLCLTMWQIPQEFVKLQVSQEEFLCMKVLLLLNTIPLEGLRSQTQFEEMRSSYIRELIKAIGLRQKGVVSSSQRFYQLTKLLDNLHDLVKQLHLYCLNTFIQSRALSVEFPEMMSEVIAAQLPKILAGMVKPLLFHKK
# Experimental: (2) Progesterone Receptor Whole Cell Competition Binding Assay Using T47D Cells
# PURPOSE: To evaluate the progesterone receptor (PR) binding activity of progestins or antiprogestins in live, intact (whole) cells using the human breast carcinoma T47D cell line and ^3H-progesterone as the labeled ligand.
# Culture Medium: • 5% RC: phenol red free DMEM:F12 (1:1) (GIBCO, BRL) supplemented with 5% (v/v) charcoal stripped fetal bovine serum (not heat-inactivated), 100 U/mL penicillin, 100 μg/mL streptomycin, and 2 mM the GlutaMax™ reagent (GIBCO, BRL). • 10% RC: Same as above supplemented with 10% (v/v) FBS. • ^3H-Progesterone: Perkin Elmer Life Science, cat# NET-381 (typically around 102 Ci/mmol)
# T47D cells were maintained in 10% RC media at 37° C. in a 5% CO2/humidified atmosphere and were split twice weekly for proper response. Cells were plated in 10% RC the day before binding assay at 50,000 cells per well in the white, clear bottom plates purchased through VWR or Perkin Elmer.
# Cells plated the day prior to the assay in white clear bottom plates were used. A master compound plate was set up containing control and test compounds at 20× final desired concentration for the competition binding. A typical dose range of 20× concentrations were (in nM); 200,000; 20,000; 6000; 2000; 600; 200; 20; and 2. Final concentrations were (in nM); 10,000; 1000; 300; 100; 30; 10; 1; 0.1. Control compounds were typically run 10-fold lower than this and include a 0, or vehicle, control well. A stock of 60 nM ^3H-progesterone (20×) were also prepared at a volume needed of 10 μL per well.
# Media on cells were replaced with 180 μL of 5% RC. Ten microliters (10 μL) of 60 nM ^3H-progesterone (for final concentration of 3 nM) was added immediately, followed by 10 μL of 20× test or control compounds. Compounds were incubated for 3 h at 37° C. (A time course study found no difference between 2 and 4 h incubation.)
# Following incubation, media was carefully removed and cells were washed 3× with 200 μL 5% RC each wash. Fifty microliters of liquid scintillation cocktail was added and the plates were shaken vigorously for a minimum of 15 min. Plates were read on the Wallac Microbeta® 1450 plate reader.
# Square root-transformed data were used for analysis of variance and calculation of IC50. SAS software (SAS Institute, Inc.) was used for all the statistical analysis.
# Progesterone was used as a reference progestin and RU486 as a reference antiprogestin.
IC50 [1] [nM],Ki [2] [nM],melting point [°C],Compound
346,968,177 to 179,"O=C1OC[C@@H](Cc2ccccc2)N1c1nc(-c2ccc(Br)cc2)cs1 [Example 36, (4R)-4-Benzyl-3-[4-(4-bromophenyl)-1,3-thiazol-2-yl]-1,3-oxazolidin-2-one]"
204,713,218 to 220,"O=C1OC[C@@H](c2ccccc2)N1c1nc(-c2ccc(Br)cc2)cs1 [Example 35, (4R)-3-[4-(4-Bromophenyl)-1,3-thiazol-2-yl]-4-phenyl-1,3-oxazolidin-2-one]"
39,68,148.5,"CCC1COC(=O)N1c1nc(-c2ccc(Br)cc2)cs1 (centres unmarked) [Example 49, 3-[4-(4-Bromophenyl)-1,3-thiazol-2-yl]-4-ethyl-1,3-oxazolidin-2-one]"
15.8,62.8,205 to 207,"C[C@H]1COC(=O)N1c1nc(-c2ccc(C#N)cc2)cs1 [Example 4, 4-{2-[(4S)-4-Methyl-2-oxo-1,3-oxazolidin-3-yl]-1,3-thiazol-4-yl}benzonitrile]"
372,584,–,"CC1(C)OCC(=O)N1c1nc(-c2ccc(Br)cc2)cs1 [Example 77, 3-[4-(4-Bromophenyl)-1,3-thiazol-2-yl]-2,2-dimethyl-1,3-oxazolidin-4-one]"
24.6,55.3,196 to 198,"C[C@H]1COC(=O)N1c1nc(-c2ccc(Br)cc2)cs1 [Example 3, (4S)-3-[4-(4-Bromophenyl)-1,3-thiazol-2-yl]-4-methyl-1,3-oxazolidin-2-one]"
5.4,20,–,"O=C1OC[C@@H](CCl)N1c1nc(-c2ccc(Br)cc2)cs1 [Example 72, (4S)-3-[4-(4-Bromophenyl)-1,3-thiazol-2-yl]-4-(chloromethyl)-1,3-oxazolidin-2-one]"
14.6,52.6,173 to 175,"CC[C@H]1COC(=O)N1c1nc(-c2ccc(C#N)cc2)cs1 [Example 8, 4-{2-[(4S)-4-Ethyl-2-oxo-1,3-oxazolidin-3-yl]-1,3-thiazol-4-yl}benzonitrile]"

# Continued, molecule first:
Compound,IC50 [1] [nM],Ki [2] [nM],melting point [°C]
"O=C1OCC2(CCC2)N1c1nc(-c2ccc(Br)cc2)cs1 [Example 26, 5-[4-(4-Bromophenyl)-1,3-thiazol-2-yl]-7-oxa-5-azaspiro[3.4]octan-6-one]",49.4,91.8,–
"CC1CN(c2nc(-c3ccc(C#N)cc3)cs2)C(=O)O1 (centres unmarked) [Example 41, 4-[2-(5-Methyl-2-oxo-1,3-oxazolidin-3-yl)-1,3-thiazol-4-yl]benzonitrile]",48.3,284,214 to 216
"CC1(C)COC(=O)N1c1nc(-c2ccc([N+](=O)[O-])cc2)cs1 [Example 80, 4,4-Dimethyl-3-[4-(4-nitrophenyl)-1,3-thiazol-2-yl]-1,3-oxazolidin-2-one]",8.6,34.5,–
"CC1(C)COC(=O)N1c1nc(-c2ccc(C#N)c(F)c2)cs1 [Example 81, 4-[2-(4,4-Dimethyl-2-oxo-1,3-oxazolidin-3-yl)-1,3-thiazol-4-yl]-2-fluorobenzonitrile]",2.3,~2000,–
"N#Cc1ccc(-c2csc(N3C(=O)OC[C@H]3C(F)(F)F)n2)cc1 [Example 65, 4-{2-[(4S)-2-Oxo-4-(trifluoromethyl)-1,3-oxazolidin-3-yl]-1,3-thiazol-4-yl}benzonitrile]",43.2,60.3,208 to 209
"CC1(C)COC(=O)N1c1nc(-c2ccc(C#N)cc2F)cs1 [Example 79, 4-[2-(4,4-Dimethyl-2-oxo-1,3-oxazolidin-3-yl)-1,3-thiazol-4-yl]-3-fluorobenzonitrile]",31.6,170,–
"CC1(C)COC(=O)N1c1nc(-c2ccc(Br)cc2F)cs1 [Example 78, 3-[4-(4-Bromo-2-fluorophenyl)-1,3-thiazol-2-yl]-4,4-dimethyl-1,3-oxazolidin-2-one]",24.8,45.6,–
